Each block holds one compound with its values, some of them ahead of it.
Assays:
[1] = species on record: Homo sapiens; assay: Selectivity index, ratio of EC50(app) for TBK1 in human PBMC […] in human PBMC
[2] = Inhibition of STING R232 mutant in mouse MEF cells assessed as increase in IFNbeta secretion
[3] = target: Stimulator of interferon genes protein (Homo sapiens, UniProt Q86WV6); assay: Induction of STING in human PBMC assessed as increase in IFNbeta secretion
[4] = target: T1, Serine/threonine-protein kinase TBK1 (Homo sapiens, UniProt Q9UHD2); assay: Induction of TBK1 in human PBMC assessed as increase in […]
T1 sequence (Q9UHD2 whole entry): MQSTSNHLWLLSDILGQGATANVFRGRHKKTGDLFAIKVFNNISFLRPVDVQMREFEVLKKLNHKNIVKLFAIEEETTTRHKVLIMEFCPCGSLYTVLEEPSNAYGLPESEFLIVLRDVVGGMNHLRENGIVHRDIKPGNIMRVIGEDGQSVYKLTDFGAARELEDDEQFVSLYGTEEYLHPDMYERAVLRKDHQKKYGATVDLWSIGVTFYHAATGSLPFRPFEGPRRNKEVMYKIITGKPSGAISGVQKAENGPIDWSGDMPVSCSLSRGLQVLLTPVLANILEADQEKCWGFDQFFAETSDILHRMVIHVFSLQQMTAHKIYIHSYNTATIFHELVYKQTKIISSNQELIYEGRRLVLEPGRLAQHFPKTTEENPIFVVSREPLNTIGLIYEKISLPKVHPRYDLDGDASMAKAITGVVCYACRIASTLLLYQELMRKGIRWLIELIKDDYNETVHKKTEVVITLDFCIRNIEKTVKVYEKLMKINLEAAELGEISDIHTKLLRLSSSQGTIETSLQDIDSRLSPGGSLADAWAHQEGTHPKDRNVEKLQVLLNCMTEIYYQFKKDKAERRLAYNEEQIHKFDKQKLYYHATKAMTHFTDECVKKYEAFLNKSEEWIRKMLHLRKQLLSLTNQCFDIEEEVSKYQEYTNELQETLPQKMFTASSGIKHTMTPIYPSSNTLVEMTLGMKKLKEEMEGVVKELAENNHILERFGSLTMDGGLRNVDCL

Sequence of Stimulator of interferon genes protein (Q86WV6 whole entry): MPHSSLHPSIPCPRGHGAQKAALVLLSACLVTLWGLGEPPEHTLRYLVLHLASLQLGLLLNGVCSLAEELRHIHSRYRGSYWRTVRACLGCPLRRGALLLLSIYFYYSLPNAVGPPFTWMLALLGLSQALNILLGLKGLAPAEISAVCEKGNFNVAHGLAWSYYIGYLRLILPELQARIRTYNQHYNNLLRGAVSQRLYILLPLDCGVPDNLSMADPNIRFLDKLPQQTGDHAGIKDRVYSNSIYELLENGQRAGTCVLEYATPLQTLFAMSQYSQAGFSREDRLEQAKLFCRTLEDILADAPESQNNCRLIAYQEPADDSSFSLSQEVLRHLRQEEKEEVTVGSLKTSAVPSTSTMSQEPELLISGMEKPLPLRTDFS

Ratio EC50 [1]: 18
Compound: CCn1nc(C)cc1C(=O)/N=c1\[nH]c2cc(C(N)=O)ccc2n1CCCCn1/c(=N/C(=O)c2cc(C)nn2CC)[nH]c2cc(C(N)=O)ccc21

Compound: CC[C@@H]1NC(=O)[C@@H]2[C@H](Cl)[C@H](Cl)CN2C(=O)[C@H](CC)NC(=O)C[C@H](c2ccccc2)NC(=O)[C@H](CO)NC1=O
IC50 [2]: 3.42 µM

EC50 [3]: 3.1 µM | EC50 [4]: 53.9 µM
Compound: CCn1nc(C)cc1C(=O)Nc1nc2cc(C(N)=O)ccc2n1CCCCn1c(NC(=O)c2cc(C)nn2CC)nc2cc(C(N)=O)ccc21
